Several values for one entry are separate records, joined by “and”; a condition that tells them apart may be missing. Identical values can stand only once.
Tests used:
[1] = tested on: involuntary movement (e.g., dyskinesia) model rats; assay: Abnormal involuntary movements (AIMs) in involuntary movement (dyskinesia) model rats given repeated L-DOPA; format: in vivo, rat; conditions: for AIMs score axial, limb, orolingual, day 1-3 / AIMs score locomotive, day 1-3 / AIMs score axial, limb, orolingual, day 8-10 / AIMs score locomotive, day 8-10: oral, multiple doses; for AIMs score axial, limb, orolingual, post value / AIMs score locomotive, post value: after 3-day drug withdrawal, L-DOPA (20 mg/kg) administered; for onset of dyskinesia: combined administration with L-DOPA 10 mg/kg, compared to single administration of L-DOPA 20 mg/kg
Source text: It is known that abnormal involuntary movements (AIMS) are developed by repeated administration of L-DOPA to the Parkinson's disease model rat prepared by the method described in Test Example 1, and the treated rat is used as a model of an involuntary movement such as dyskinesia, or the like. AIMs are classified into 4 kinds: (1) axial AIMs: deflection or torsion of head, neck, and trunk towards the contralateral side of lesioned side of the brain, (2) limb AIMs: movements of mainly forelimb on the contralateral side of the lesioned side of the brain (bending or extension in the perpendicular direction or movements in the horizontal•back and forth directions, opening and closure of the digits etc.); (3) orolingual AIMs: jaw movements, facial distortion, tongue protrusion (accompanying behavior of biting hair, skin of forelimb on the contralateral side of the lesioned side); and (4) locomotive AIMs: contralateral rotational behavior. Of these, locomotive AIMs are induced by dopamine agonists such as bromocriptine causing less dyskinesia, and are not suppressed by a drug having an […] activity such as amantadine. From these, locomotive AIMs have been reported to reflect normal movements improved by an antiparkinsonian effect (Neurobiology of Disease, 2002, vol. 10, p. 165-86; European Journal of Neuroscience, 2002, vol. 15, p. 120-132). […] The frequency of the above-mentioned four kinds of AIMs were scored in 0 to 4 points (0 point: no symptom, 1 point: appearance in less than 50% of observation time, 2 points: appearance in 50% or more of observation time, 3 points: symptom is maintained but prevented by strong sensory stimuli, 4 points: symptom is maintained and is not prevented by strong sensory stimuli). As for axial AIMs and limb AIMs, the amplitude thereof was scored in 1 to 4 points (axial AIMs; 1 point: deflection of head and neck is less than 30 degrees, 2 points: deflection of head and neck is not less than 30 degrees and less than 60 degrees, 3 points: deflection and torsion of head, neck and upper trunk is not less than 60 degrees and less than 90 degrees, 4 points: deflection and torsion of head, neck and trunk is 90 degrees or more and balance is lost, limb AIMs; 1 point: tiny oscillatory movements of limb and distal forelimb, 2 points: low amplitude but visible translocation of both distal and proximal limbs, 3 points: translocation of the whole limb with visible contraction of shoulder muscles, 4 points: strong movements of limb and shoulder at maximul amplitude). SD male rats (6-week-old, CHARLES RIVER LABORATORIES JAPAN, INC.) were used for the test. Parkinson's disease model rats were prepared according to the method described in Test Example 1. After a postoperative period of 6 days or longer, L-DOPA (20 mg/kg/day) was repetitively and orally administered once or twice per day to give a model rat of involuntary movement such as dyskinesia, or the like. […] The rats almost free of AIMs after the lapse of 1 week or longer from repetitive administration of L-DOPA were removed. As the group constitution, an L-DOPA 20 mg/kg and 0.5% MC solution administration group (single administration group) and an L-DOPA 10 mg/kg and test compound administration group (combined administration group) were used. The test compound was used in the same dose as in Test Example 1, whereby the conditions under which both the single administration group and the combined administration group show the same level of antiparkinsonian activity were set. After grouping, multiple doses of L-DOPA 20 mg/kg and 0.5% MC solution, and L-DOPA 10 mg/kg and test compound were orally administered, respectively. […] After the completion of administration, a 3-day drug withdrawal period was taken, and then L-DOPA (20 mg/kg) was administered. The AIMs score at this time was taken as the post value. The AIMs score of each group was expressed as mean±standard deviation of total AIMs score observed in individual rats for one day. […]

[2] = tested on: 6-OHDA treated rats (Parkinson's disease model rat); assay: L-DOPA induced contralateral rotational behavior (antiparkinsonian effect) in the Parkinson's disease model rats; format: in vivo; conditions: for number of rotations: oral, total count in 3 hr; for antiparkinsonian activity compared with single administration of L-DOPA 20 mg/kg: L-DOPA 10 mg/kg and test compound combined; for effect on L-DOPA induced rotational behavior, namely antiparkinsonian activity: combined with L-DOPA 10 mg/kg, vs L-DOPA 10 mg/kg + 0.5% MC solution
[3] = L-DOPA (20 mg/kg) + 0.5% MC solution (single administration)
[4] = group L-DOPA (20 mg/kg) + 0.5% MC solution
[5] = L-DOPA (10 mg/kg) + compound 1 (30 mg/kg)
[6] = group L-DOPA (10 mg/kg) + compound 1 (30 mg/kg)
[7] = L-DOPA (10 mg/kg) + compound 2 (1 mg/kg)
[8] = group L-DOPA (10 mg/kg) + compound 2 (1 mg/kg)

## N[C@@H](Cc1ccc(O)c(O)c1)C(=O)O [L-DOPA, reference compound]
[1]; [3]
  AIMs score axial, limb, orolingual, day 1-3: 272.9 ± 25.9 and 271.9 ± 12.6
  AIMs score locomotive, day 1-3: 16.0 ± 2.1 and 12.4 ± 2.6
  AIMs score axial, limb, orolingual, day 8-10: 291.7 ± 16.7 and 232.4 ± 26.2
  AIMs score locomotive, day 8-10: 16.1 ± 2.1 and 13.6 ± 1.7
[1]; [4]
  AIMs score axial, limb, orolingual, post value: 129.3 ± 14.3 and 139.1 ± 12.6
  AIMs score locomotive, post value: 16.3 ± 2.8 and 15.0 ± 1.4
[2]; L-DOPA (10 mg/kg) + 0.5% MC solution (single administration)
  number of rotations: 534.3 ± 123.4 and 367.3 ± 140.6

## CC(C)(O)CCN1CCN(c2cc3nc(-c4ccco4)nn3c(N)n2)CC1 [compound 1]
[1]; [5]
  AIMs score axial, limb, orolingual, day 1-3: 78.3 ± 17.2
  AIMs score locomotive, day 1-3: 16.3 ± 3.5
  AIMs score axial, limb, orolingual, day 8-10: 105.0 ± 24.1
  AIMs score locomotive, day 8-10: 16.4 ± 3.9
[1]
  onset of dyskinesia: significant suppression
[1]; [6]
  AIMs score axial, limb, orolingual, post value: 106.9 ± 14.0
  AIMs score locomotive, post value: 17.1 ± 3.1
[2]
  antiparkinsonian activity compared with single administration of L-DOPA 20 mg/kg: same level
  effect on L-DOPA induced rotational behavior, namely antiparkinsonian activity: significantly enhanced
[2]; L-DOPA (10 mg/kg) + compound 1 (30 mg/kg), mean±standard deviation
  number of rotations: 1732.2 ± 305.2

## COCCOc1ccc(N2CCN(CCn3ncc4c3nc(N)n3nc(-c5ccco5)nc43)CC2)cc1 [compound 2]
[1]; [7]
  AIMs score axial, limb, orolingual, day 1-3: 146.4 ± 13.3
  AIMs score locomotive, day 1-3: 14.8 ± 1.7
  AIMs score axial, limb, orolingual, day 8-10: 117.5 ± 15.5
  AIMs score locomotive, day 8-10: 14.4 ± 1.7
[1]
  onset of dyskinesia: significant suppression
[1]; [8]
  AIMs score axial, limb, orolingual, post value: 159.8 ± 24.7
  AIMs score locomotive, post value: 13.1 ± 1.7
[2]
  antiparkinsonian activity compared with single administration of L-DOPA 20 mg/kg: same level
  effect on L-DOPA induced rotational behavior, namely antiparkinsonian activity: significantly enhanced
[2]; L-DOPA (10 mg/kg) + compound 2 (1 mg/kg), mean±standard deviation
  number of rotations: 1543.5 ± 263.2

— patent US20090105277A1, “AGENT FOR PREVENTING AND/OR TREATING MOVEMENT DISORDER” (KYOWA HAKKO KOGYO CO., LTD., priority 2005, published 2009)
